Assay results: article PMC3057395 (ChemMedChem, 2009)

These molecules were tested against mouse PKCα (Mus musculus, UniProt P20444) (assay: PKC binding assay). Conditions: not given.
C=CCCCCCOc1ccc2c(c1)N(C)[C@@H](C(C)C)C(=O)N[C@H](CO)C2 [compound 3, 9-Hept-6-enyloxy-5-hydroxymethyl-2-isopropyl-1-methyl-1,4,5,6-tetrahydro-2H-benzo[e][1,4] diazocin-3-one] gave a Ki of 5.4 ± 0.1 nM.
CC(=O)SCCCOc1ccc2c(c1)N(C)[C@@H](C(C)C)C(=O)N[C@H](CO)C2 [compound 9, Thioacetic acid S-[3-(5-hydroxymethyl-2-isopropyl-1-methyl-3-oxo-1,2,3,4,5,6-hexahydro-benzo[e] [1,4]diazocin-9-yloxy)-propyl] ester] showed a Ki of 21 ± 2.8 nM.
CC(=O)SCCCCOc1ccc2c(c1)N(C)[C@@H](C(C)C)C(=O)N[C@H](CO)C2 [compound 10, Thioacetic acid S-[4-(5-hydroxymethyl-2-isopropyl-1-methyl-3-oxo-1,2,3,4,5,6-hexahydro-benzo [e][1,4]diazocin-9-yloxy)-butyl] ester] showed a Ki of 15.8 ± 0.8 nM.
In the case of CC(=O)SCCCCCOc1ccc2c(c1)N(C)[C@@H](C(C)C)C(=O)N[C@H](CO)C2 [compound 11, Thioacetic acid S-[5-(5-hydroxymethyl-2-isopropyl-1-methyl-3-oxo-1,2,3,4,5,6-hexahydro-benzo[e] [1,4]diazocin-9-yloxy)-pentyl] ester], the Ki is reported as 6.6 ± 0.2 nM.
Molecule CC(=O)SCCCCCCCOc1ccc2c(c1)N(C)[C@@H](C(C)C)C(=O)N[C@H](CO)C2 [compound 13, Thioacetic acid S-[7-(5-hydroxymethyl-2-isopropyl-1-methyl-3-oxo-1,2,3,4,5,6-hexahydrobenzo[e] [1,4]diazocin-9-yloxy)-heptyl] ester] has a Ki of 4.5 ± 0.4 nM.
Work on CC(=O)SCCCCCCCCOc1ccc2c(c1)N(C)[C@@H](C(C)C)C(=O)N[C@H](CO)C2 [compound 14, Thioacetic acid S-[8-(5-hydroxymethyl-2-isopropyl-1-methyl-3-oxo-1,2,3,4,5,6-hexahydro-benzo[e] [1,4]diazocin-9-yloxy)-octyl] ester] yielded a Ki of 2.8 ± 0.5 nM.

Same assay, conditions: read-out: Ki [nM] ± SEM
For CC(C)[C@H]1C(=O)N[C@H](CO)Cc2ccc(O)cc2N1C [compound 2, 9-Hydroxy-5-hydroxymethyl-2-isopropyl-1-methyl-(2S,5S)-1,4,5,6-tetrahydro-2H-benzo[e][1,4] diazocin-3-one], the Ki was 4840 ± 320 nM.
